Data published in US20230235036A1, “ACVR1 (ALK2) RECEPTOR INHIBITION TO TREAT NEUROLOGICAL DISEASES” (The J. David Gladstone Institutes, a testamentary trust …, priority 2020, published 2023).
“Also recorded” adds a separate entry of the source. Where two headings read alike, the source gives them in different places.

Assays:
primary rat OPCs = test: OPC-X-screen: OPC differentiation to MBP+ OLs or GFAP+ astrocytes in presence of fibrinogen; type: cell-based; conditions: for cell-fate switch of OPCs to GFAP+ cells by fibrinogen: fibrinogen-treated OPCs, clemastine 1 μM; for cell-fate switch of OPCs to GFAP+ cells by fibrinogen / OPC differentiation to mature MBP+ OLs under extrinsic inhibition by fibrinogen: DMH1 1 μM; for OPC differentiation to mature MBP+ OLs under extrinsic inhibition by fibrinogen: myelin-promoting compound screen, fibrinogen 1.5 mg/ml, benztropine, clemastine, quetiapine, miconazole, (±)U-50488 1 μM, clobetasol 5 μM, XAV-939 0.1 μM
[1] = test system: BMP signaling (P-SMAD1/5, ID2) in primary rat OPCs; test: Immunoblot of phospho-SMAD1/5 and ID2 in fibrinogen-treated OPCs; type: cell-based
Protocol: Cells or tissue were lysed in RIPA lysis buffer (Thermo Fisher Scientific) supplemented with protease/phosphatase inhibitor cocktails (Calbiochem) and lysates were cleared by centrifuging at 13,000×g for 15 minutes at 4° C. Equal amounts of protein were loaded in […] bis-tris gels (Thermo Fisher Scientific) and analyzed by western blotting. Bands were visualized with HRP-conjugated secondary antibodies (Cell Signaling Technology). Densitometry was performed using ImageJ Software (NIH) with values for each band normalized to GAPDH loading controls from the same membrane. Primary antibodies were: Id2 (1:1000, rabbit monoclonal, #M213, CalBioreagents); phospho-Smad1/5 (1:1000, rabbit monoclonal, #9516, Cell Signaling Technology); GAPDH (1:1000, rabbit monoclonal, #2118, Cell Signaling Technology)

Water solubility = type: physicochemical
PLP-EAE = test: In vivo PLP-EAE
[2] = test system: NG2-CreER™:Rosa^tdTomato/+ MOG35-55-EAE mice; conditions: vs saline
NOD-MOG35-55 EAE mice = test: Progressive NOD-MOG35-55 EAE, therapeutic treatment; type: in vivo, mouse
[3] = LDN-212854 dose response 5 μM to 2 nM, fibrinogen 2.5 mg/ml, 3 days
[4] = in vivo 2P imaging at chronic EAE
[5] = fibrinogen alone vs control, OPC-X assay

With `CC(C)Oc1ccc(-c2cnc3c(-c4ccnc5ccccc45)cnn3c2)cc1` [DMH1] the “cell-fate switch of OPCs to GFAP+ cells by fibrinogen” value (primary rat OPCs; 3 days) was “abolished”, the “OPC differentiation to mature MBP+ OLs under extrinsic inhibition by fibrinogen” value (primary rat OPCs; 3 days) was “restored OPC differentiation to mature OLs to control levels” and the “fibrinogen-induced expression of BMP target protein ID2” value [1] was “blocked”. For the same molecule, the “fibrinogen-induced phosphorylation of SMAD1/5” value [1] was “blocked” and the water solubility (Water solubility) was “not water-soluble”.
In the case of `c1cc(-c2cnn3cc(-c4ccc(N5CCNCC5)cc4)cnc23)c2cccnc2c1` [LDN-212854], the “formation of GFAP+ astrocytes from fibrinogen-treated OPCs” value (primary rat OPCs; [3]) is reported as “blocked the formation of GFAP+ astrocytes”, the “mature OL (MBP+) differentiation from fibrinogen-treated OPCs” value (primary rat OPCs; [3]) is reported as “enhanced formation of mature oligodendrocytes; also recorded: restored mature OL differentiation” and the clinical scores (PLP-EAE) is reported as “improved”. For the same molecule, the “spinal cord Id2 protein levels” value (PLP-EAE) was “reduced”, the clinical scores ([2]; 6 mg/kg twice daily for 14 days starting at peak disease) was “significantly improved” and the “ID2 expression in NG2 cells in the EAE white matter” value ([2]; 14 day treatment) was “decreased”. The “demyelination in spinal cord” value ([2]; 14 days treatment) was “reduced”, the “fibrinogen deposition in spinal cord” value ([2]; 14 days treatment) was “reduced” and the “myelin damage (myelin circularity)” value [2, 4] was “markedly reduced”. For the same molecule, the “perivascular NG2 clusters” value [2, 4] was “markedly reduced”, the water solubility (Water solubility) was “water soluble; also recorded: water-soluble” and the “demyelination in spinal cord” value (NOD-MOG35-55 EAE mice; 30 days treatment, vs saline) was “reduced”. For the same molecule, the “fibrinogen deposition in spinal cord” value (NOD-MOG35-55 EAE mice; 30 days treatment, vs saline) was “reduced”, the clinical scores (NOD-MOG35-55 EAE mice; treated for 30 days, vs saline) was “significantly improved” and the “group mean of maximum clinical scores” value (NOD-MOG35-55 EAE mice; treated for 30 days, maximum scores from the last 20 days of treatment, five-point scale) was 1.75.
With `Oc1nc(-c2ccc(C(F)(F)F)cc2)nc2c1CSCC2` [XAV-939] the “OPC differentiation to mature MBP+ OLs under extrinsic inhibition by fibrinogen” value (primary rat OPCs; 3 days) was “did not overcome extrinsic inhibition of OPC differentiation by fibrinogen”.
In the case of `CN1[C@@H]2CC[C@H]1C[C@@H](OC(c1ccccc1)c1ccccc1)C2` [benztropine], the “OPC differentiation to mature MBP+ OLs under extrinsic inhibition by fibrinogen” value (primary rat OPCs; 3 days) is reported as “did not overcome extrinsic inhibition of OPC differentiation by fibrinogen”.
With `CN1CCC[C@@H]1CCO[C@](C)(c1ccccc1)c1ccc(Cl)cc1` [clemastine] the “OPC differentiation to mature OLs in the presence of fibrinogen” value (primary rat OPCs; clemastine dose-response, fibrinogen 2.5 mg/ml, differentiation media without T3 or growth factors, 3 days) was “did not enhance”, the “cell-fate switch of OPCs to GFAP+ cells by fibrinogen” value (primary rat OPCs; 3 days) was “did not inhibit SMAD1/5 phosphorylation, a key pathway downstream of BMP receptor activation, or rescue” and the “number of MBP+ cells in control conditions” value (primary rat OPCs; no fibrinogen, differentiation media without T3 or growth factors, 3 days) was “increased”. The “fibrinogen-induced expression of BMP target protein ID2” value [1] was “did not block”, the “fibrinogen-induced phosphorylation of SMAD1/5” value [1] was “did not inhibit” and the “fibrinogen-induced phosphorylation of SMAD1/5” value ([1]; listed as Clemastine) was “did not block”.
With `C[C@H]1C[C@H]2[C@@H]3CCC4=CC(=O)C=C[C@]4(C)[C@@]3(F)[C@@H](O)C[C@]2(C)[C@@]1(O)C(=O)CCl` [clobetasol] the “OPC differentiation to mature MBP+ OLs under extrinsic inhibition by fibrinogen” value (primary rat OPCs; 3 days) was “did not overcome extrinsic inhibition of OPC differentiation by fibrinogen”.
In the case of `Clc1ccc(COC(Cn2ccnc2)c2ccc(Cl)cc2Cl)c(Cl)c1` (stereo not drawn) [miconazole], the “OPC differentiation to mature MBP+ OLs under extrinsic inhibition by fibrinogen” value (primary rat OPCs; 3 days) is reported as “did not overcome extrinsic inhibition of OPC differentiation by fibrinogen”.
With `OCCOCCN1CCN(C2=Nc3ccccc3Sc3ccccc32)CC1` [quetiapine] the “OPC differentiation to mature MBP+ OLs under extrinsic inhibition by fibrinogen” value (primary rat OPCs; 3 days) was “did not overcome extrinsic inhibition of OPC differentiation by fibrinogen”.
For fibrinogen, the “decrease of MBP+ mature OLs as compared to controls” value (primary rat OPCs; [5]) was roughly 60% and the “increase of GFAP+ astrocyte-like cells as compared to controls” value (primary rat OPCs; [5]) was roughly 60%.
